According to patent EP3445348B1, “FLUORESCENT COMPOUNDS, PRODUCTION METHODS AND USES THEREOF” (Universidade de Aveiro, priority 2016, dated 2017):

Tests used:
[1] = system: HeLa cells; experiment: Resazurin metabolic cell viability assay, HeLa cells; type: cell-based; conditions: Human HeLa live cells, 24h, 1×10^-5 mol.L^-1
From the text: (§1) The following figures provide preferred embodiments for the present disclosure and should not be seen as limiting the scope of the disclosure. • Figure 1: Scheme of the fluorophore precursors synthesis. • Figure 2: Synthesis of the fluorophores. • Figure 3: Absorption and emission spectra of some of the fluorophores in a dichloromethane (DCM) solution wherein black squares represent the absorption of (1E,4E)-1,5-bis[4-(dimethylamino)phenyl]penta-1,4-dien-3-one; black circles represent the absorption of (2E,6E)-2,6-bis[4-(dimethylamino)benzylidene]cyclohexanone; black diamonds represent the absorption of 2,6-bis[3-bromo-4-(dimethylamino)benzylidene]cyclohexanone; black triangles pointing up represent the absorption of (1E,4E)-1,5-bis[3-bromo-4-(dimethylamino)phenyl]penta-1,4-dien-3-one; black triangles pointing down represent the absorption of (1E,4E)-1,5-bis[3-chloro-4-(dimethylamino)phenyl]penta-1,4-dien-3-one; black stars represent the absorption of 2,6-bis[3-chloro-4-(dimethylamino)benzylidene]cyclohexanone; open squares represent the emission of (1E,4E)-1,5-bis[4-(dimethylamino)phenyl]penta-1,4-dien-3-one; open circles represent the emission of (2E,6E)-2,6-bis[4-(dimethylamino)benzylidene]cyclohexanone; open diamonds represent the emission of 2,6-bis[3-bromo-4-(dimethylamino)benzylidene]cyclohexanone; open triangles pointing up represent the absorption of (1E,4E)-1,5-bis[3-bromo-4-(dimethylamino)phenyl]penta-1,4-dien-3-one; open triangles pointing down represent the absorption of (1E,4E)-1,5-bis[3-chloro-4-(dimethylamino)phenyl]penta-1,4-dien-3-one; open stars represent the absorption of 2,6-bis[3-chloro-4-(dimethylamino)benzylidene]cyclohexanone. • Figure 4: Sample distributions of two cyclic fluorophores: (2E,6E)-2,6-bis[3-bromo-4-(dimethylamino)benzylidene]cyclohexanone labelled as cyclic-Br and (2E,6E)-2,6-bis[3-chloro-4-(dimethylamino)benzylidene]cyclohexanone labelled as cyclic-Cl (orange pseudocolour) in HeLa cells cultured on coverslips and incubated alive and for 1h with 10^-5 mol.L^-1 of the compounds. The laser line 458 nm was used to excite and the confocal Zeiss LSM-510 META 415 to 750 nm detector used to detect the fluorophores. The nuclear DAPI is used as a counterstaining dye. • Figure 5: Co-localization of the compounds (1E,4E)-1,5-bis[4-(dimethylamino)phenyl]penta-1,4-dien-3-one, labelled as linear-H and (2E,6E)-2,6-bis[3-chloro-4-(dimethylamino)benzylidene]cyclohexanone, labelled as cyclic-Cl with the Trans-Golgi Network (TGN) marker Syntaxin-6, which was Texas Red (red colour) and Alexa-405 (cyan pseudocolour) labelled by using secondary antibodies. DAPI (blue colour) was used as nuclear marker. HeLa cells were incubated in particular for 1h with 1-2×10^-5 mol.L^-1 of the fluorophores, before being fixed. The laser line 405 nm, in particular at 10-20% of its power was used to excite the fluorophores. […] A. Cell viability was determined using the metabolic Resazurin assay, and data (resazurin final O.D.±SD of four independent experiments) presented graphically as percentages of control cells (not incubated with the compounds), wherein the control is labelled as Ctrl; (1E,4E)-1,5-bis[4-(dimethylamino)phenyl]penta-1,4-dien-3-one is labelled as L-H; (1E,4E)-1,5-bis[3-chloro-4-(dimethylamino)phenyl]penta-1,4-dien-3-one is labelled as L-Cl; (1E,4E)-1,5-bis[3-bromo-4-(dimethylamino)phenyl]penta-1,4-dien-3-one is labelled as L-Br; (2E,6E)-2,6-bis[4-(dimethylamino)benzylidene]cyclohexanone labelled is labelled as C-H; 2,6-bis[3-chloro-4-(dimethylamino)benzylidene]cyclohexanone is labelled as C-Cl; 2,6-bis[3-bromo-4-(dimethylamino)benzylidene]cyclohexanone is labelled as C-Br. Statistical significance using the student-t test: *p<0.05; **p<0.01. B. Microphotograph of Cyclic-Cl distribution in HeLa and MC3T3 cells upon 24h of exposure to the compounds. Microscope settings used: a 40×/1.3 oil objective; HFT 405/488/633; in particular a 405 nm laser line at 40% of its power. […]

[2] = system: MC3T3 live cells; experiment: Resazurin metabolic cell viability assay, MC3T3 cells; type: cell-based, rat; conditions: 24h, 1×10^-5 mol.L^-1
From the text: as §1

[3] = comparison compound; cited from earlier work

SMILES | cytotoxicity (cell viability, resazurin reduction) [1] | cytotoxicity (cell viability, resazurin reduction) [2] | storage stability [3]
CN(C)c1ccc(/C=C2\CCC/C(=C\c3ccc(N(C)C)cc3)C2=O)cc1 [cyclic-H, (2E,6E)-2,6-bis[4-(dimethylamino)benzylidene]cyclohexanone] | not cytotoxic | not cytotoxic | –
CN(C)c1ccc(/C=C/C(=O)/C=C/c2ccc(N(C)C)cc2)cc1 [linear-H, (1E,4E)-1,5-bis[4-(dimethylamino)phenyl]penta-1,4-dien-3-one] | not cytotoxic | not cytotoxic | –
CCN(CC)c1ccc2nc3c4ccccc4c(=O)cc-3oc2c1 [Nile Red, 9-diethylamino-5H-benzo[a]phenoxazine-5-one] | – | – | stable if kept at -20 °C
CN(C)c1ccc(/C=C2\CCC/C(=C\c3ccc(N(C)C)c(Br)c3)C2=O)cc1Br [cyclic-Br, (2E,6E)-2,6-bis[3-bromo-4-(dimethylamino)benzylidene]cyclohexanone] | not cytotoxic | not cytotoxic | –
CN(C)c1ccc(/C=C/C(=O)/C=C/c2ccc(N(C)C)c(Cl)c2)cc1Cl [linear-Cl, (1E,4E)-1,5-bis[3-chloro-4-(dimethylamino)phenyl]penta-1,4-dien-3-one] | not cytotoxic | not cytotoxic | –
CN(C)c1ccc(/C=C/C(=O)/C=C/c2ccc(N(C)C)c(Br)c2)cc1Br [linear-Br, (1E,4E)-1,5-bis[3-bromo-4-(dimethylamino)phenyl]penta-1,4-dien-3-one] | not cytotoxic | not cytotoxic | –
CN(C)c1ccc(/C=C2\CCC/C(=C\c3ccc(N(C)C)c(Cl)c3)C2=O)cc1Cl [cyclic-Cl, (2E,6E)-2,6-bis[3-chloro-4-(dimethylamino)benzylidene]cyclohexanone] | not cytotoxic | not cytotoxic | –
